What all share (assay type): functional
The test system of assay [1] is Staphylococcus aureus. Description: Antibacterial activity against Staphylococcus aureus KCTC 209 after 24 hrs by broth microdilution method. As to conditions: KCTC 209, 24 h. In general terms: Broth dilution looks for growth in wells or tubes with falling amounts of substance.
The test system of assay [2] is Staphylococcus aureus. Description: Antibacterial activity against Staphylococcus aureus KCTC 503 after 24 hrs by broth microdilution method. As to conditions: KCTC 503, 24 h.
For assay [3], the system named is Staphylococcus aureus. In words: Antibacterial activity against Staphylococcus aureus RN4220 after 24 hrs by broth microdilution method. As to conditions: RN4220, 24 h.
The test system of a further assay is Escherichia coli. In words: Antibacterial activity against Escherichia coli CCARM 1356 after 24 hrs by broth microdilution method. As to conditions: CCARM 1356, 24 h.
In assay [4] the test system is Staphylococcus aureus. In words: Antibacterial activity against methicillin-resistant Staphylococcus aureus CCARM 3167 clinical isolate after 24 hrs by broth microdilution method. As to conditions: CCARM 3167, 24 h.
Assay [5] concerns Staphylococcus aureus. Description: Antibacterial activity against methicillin-resistant Staphylococcus aureus CCARM 3506 clinical isolate after 24 hrs by broth microdilution method. As to conditions: CCARM 3506, 24 h.
Assay [6] has as its system Staphylococcus aureus. In words: Antibacterial activity against quinolone-resistant Staphylococcus aureus CCARM 3505 clinical isolate after 24 hrs by broth microdilution method. As to conditions: CCARM 3505, 24 h.
The test system of assay [7] is Staphylococcus aureus. Description: Antibacterial activity against quinolone-resistant Staphylococcus aureus CCARM 3519 clinical isolate after 24 hrs by broth microdilution method. As to conditions: CCARM 3519, 24 h.
The test system of assay [8] is Staphylococcus aureus. Description: Ratio of norfloxacin MIC to compound MIC for methicillin-resistant Staphylococcus aureus CCARM 3167 clinical isolate.
Assay [9] has as its system Staphylococcus aureus. Description: Ratio of norfloxacin MIC to compound MIC for methicillin-resistant Staphylococcus aureus CCARM 3506 clinical isolate.
Assay [10] concerns Staphylococcus aureus. Description: Ratio of norfloxacin MIC to compound MIC for quinolone-resistant Staphylococcus aureus CCARM 3505 clinical isolate.
Assay [11] relates to Staphylococcus aureus. Description: Ratio of norfloxacin MIC to compound MIC for quinolone-resistant Staphylococcus aureus CCARM 3519 clinical isolate.

In brackets after ≈: the same amount, converted by molar mass.

From ChEMBL document CHEMBL2086385, “Synthesis and antimicrobial evaluation of L-phenylalanine-derived C5-substituted rhodanine and chalcone derivatives containing thiobarbituric acid or 2-thioxo-4-thiazolidinone” (2012) come the findings set out here.

What is called MIC is the least concentration at which growth counts as inhibited. A low value points to greater potency.

Turning to `COc1ccc(C(=O)/C=C/c2ccc(/C=C3\SC(=S)N([C@@H](Cc4ccccc4)C(=O)O)C3=O)cc2)cc1`, the MIC in the assay on Staphylococcus aureus [1] was 16 µg/mL (≈ 30.2 µM); in the assay on Staphylococcus aureus [2] it was 16 µg/mL (≈ 30.2 µM); in the assay on Staphylococcus aureus [3] it was 4 µg/mL (≈ 7.55 µM); against Escherichia coli, greater than 64 µg/mL; in the assay with Staphylococcus aureus [4], 4 µg/mL (≈ 7.55 µM); in the assay on Staphylococcus aureus [5], 4 µg/mL (≈ 7.55 µM). The MIC with Staphylococcus aureus [6] and in the assay on Staphylococcus aureus [7] was 4 µg/mL (≈ 7.55 µM) in each case. The Ratio in the assay with Staphylococcus aureus [8], in the assay on Staphylococcus aureus [9], in the assay with Staphylococcus aureus [10] and with Staphylococcus aureus [11] was 2 each time.
On to `O=C(/C=C/c1ccc(/C=C2\SC(=S)N([C@@H](Cc3ccccc3)C(=O)O)C2=O)cc1)c1ccccc1`, for which the MIC against Staphylococcus aureus [1] was 16 µg/mL (≈ 32 µM); with Staphylococcus aureus [2] it was 8 µg/mL (≈ 16 µM); against Staphylococcus aureus [3], 4 µg/mL (≈ 8.01 µM); against Escherichia coli, greater than 64 µg/mL; against Staphylococcus aureus [4], 4 µg/mL (≈ 8.01 µM); in the assay on Staphylococcus aureus [5] it was 4 µg/mL (≈ 8.01 µM). Further, the MIC against Staphylococcus aureus [6] was found to be 8 µg/mL (≈ 16 µM); against Staphylococcus aureus [7], 4 µg/mL (≈ 8.01 µM). Further, the Ratio in the assay on Staphylococcus aureus [8], in the assay with Staphylococcus aureus [9], in the assay with Staphylococcus aureus [10] and in the assay with Staphylococcus aureus [11] was 2 in each case.
Consider `O=C(/C=C/c1ccc(/C=C2\SC(=S)N([C@@H](Cc3ccccc3)C(=O)O)C2=O)cc1)c1ccccc1Br`, for which the MIC against Staphylococcus aureus [1] is 16 µg/mL (≈ 27.7 µM); with Staphylococcus aureus [2] it was 16 µg/mL (≈ 27.7 µM); with Staphylococcus aureus [3], 2 µg/mL (≈ 3.46 µM); with Escherichia coli, greater than 64 µg/mL; in the assay on Staphylococcus aureus [4], 2 µg/mL (≈ 3.46 µM); in the assay on Staphylococcus aureus [5] it was 4 µg/mL (≈ 6.91 µM). Also, the MIC against Staphylococcus aureus [6] and with Staphylococcus aureus [7] was 4 µg/mL (≈ 6.91 µM) each time. Moreover, the Ratio with Staphylococcus aureus [8], in the assay with Staphylococcus aureus [9], in the assay with Staphylococcus aureus [10] and in the assay with Staphylococcus aureus [11] was 2 in each case.
